The results in this text go back to ChEMBL document CHEMBL1133171, “Selective plasma hydrolysis of glucocorticoid gamma-lactones and cyclic carbonates by the enzyme paraoxonase: an ideal plasma inactivation mechanism” (J Med Chem, 2000).

Assay [1] concerns the target T1, Glucocorticoid receptor (Homo sapiens, UniProt P04150).
T1 sequence (P04150 whole entry): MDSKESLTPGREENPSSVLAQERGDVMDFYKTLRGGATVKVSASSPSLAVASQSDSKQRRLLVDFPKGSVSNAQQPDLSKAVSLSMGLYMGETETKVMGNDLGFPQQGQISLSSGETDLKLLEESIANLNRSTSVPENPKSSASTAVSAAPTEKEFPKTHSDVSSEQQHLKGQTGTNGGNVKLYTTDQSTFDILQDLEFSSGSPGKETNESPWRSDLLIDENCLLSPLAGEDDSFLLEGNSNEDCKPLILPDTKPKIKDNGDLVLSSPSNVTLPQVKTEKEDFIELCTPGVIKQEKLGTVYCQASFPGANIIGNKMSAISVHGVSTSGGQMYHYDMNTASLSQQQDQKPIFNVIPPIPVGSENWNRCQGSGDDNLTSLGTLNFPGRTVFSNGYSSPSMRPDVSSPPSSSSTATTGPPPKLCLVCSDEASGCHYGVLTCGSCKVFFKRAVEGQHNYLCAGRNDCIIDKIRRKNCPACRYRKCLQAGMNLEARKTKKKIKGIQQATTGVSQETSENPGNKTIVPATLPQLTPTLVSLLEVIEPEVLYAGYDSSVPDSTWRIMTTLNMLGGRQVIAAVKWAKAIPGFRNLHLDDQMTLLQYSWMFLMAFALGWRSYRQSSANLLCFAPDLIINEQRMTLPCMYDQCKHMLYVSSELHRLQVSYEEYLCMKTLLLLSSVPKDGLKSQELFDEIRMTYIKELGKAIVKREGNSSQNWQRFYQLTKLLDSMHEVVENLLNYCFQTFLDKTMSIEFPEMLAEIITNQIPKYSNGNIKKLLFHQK
Briefly: (§1) Inhibition of [3H]dexamethasone binding to human Glucocorticoid Receptor.

For assay [2], the target named is T1, Glucocorticoid receptor. The description is as §1. This is another data set of the same source.

The term IC50 denotes the concentration needed to halve the response being measured. The low end stands for greater potency in that assay, the high end for weaker potency in that assay. Regarding `CC1(C)O[C@@H]2CC3C4C[C@H](F)C5=CC(=O)C=C[C@]5(C)[C@@]4(F)[C@@H](O)C[C@]3(C)[C@]2(C(=O)CSC(CCO)C(=O)O)O1` (some centres not stated), the values for the IC50 on Glucocorticoid receptor [1] and at Glucocorticoid receptor [2] were 194 nM and 827 nM, respectively.
